Test results reported in patent US11207379B2, “Peptides with anti-cancer activity” (IDP DISCOVERY PHARMA, S.L., priority 2016, dated 2021).

Columns and labels:
[1] = tested on: MM1S cells; assay: Subcutaneous xenograft model, tumor volume and survival; assay type: in vivo, CB17-SCID immunosuppressed mice; conditions: 5 mg/kg i.p. each 12 h; for Tumor Volume: in mm³ (unit assumed)
Protocol: CB17-SCID immunosuppressed mice (female) of 6-7 weeks old housed and handled in a pathogen-free zone. They were purchased from Janvier Labs. All experiments were carried out within the facilities of the University of Salamanca.
Groups Studied: • Control: Medium (PBS) i.p. each 12 hours from Monday to Friday. • S03 i.p. each 12 hours from Monday to Friday (in PBS until end point) • S04 15 mg/kg i.p. each 12 hours from Monday to Friday (in PBS until end point) • S09 5 mg/kg i.p. each 12 hours from Monday to Friday (in PBS until end point)
Subcutaneous xenoaraft model: The mice were shaved on the right flank and anesthetized by inhalation to decrease their mobility, were inoculated subcutaneously with 3×10^6 MM1S cells in 50 μl of RPMI-1640 medium and 50 μl of Corning® Matrigel® Basement Membrane Matrix. When the tumors became palpable (at 30 days), the mice were randomized into the different groups (5 mice in the control group and 4 in the remaining groups) according to the tumor volume. This was estimated by measurements with a caliper of the two tumor diameters and using the following formula of a spheroid: V=(a·b^2·π)/6, where a and b correspond to the longest and shortest diameter, respectively. Tumor volume was monitored three times per week.
Survival evaluation: Mice were sacrificed when their tumor diameter reached 2 cm. The time to reach the endpoint criterion was estimated from the day of treatment start. The statistical differences were evaluated using Kaplan-Meier curves with the log rank test. Statistical analyzes were performed using the SPSS-17.0 program.

[2] = molecular target: MCF-7, epithelial (breast cancer); assay: Viability assay (MTT, Alamar Blue, hexosaminidase), 72 h; assay type: cell-based; conditions: MCF7 cells, read-out: EC50
Method in brief: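 Cells seeded at 5000/well, compounds added 24 h later from 100 μM in 1:1 serial dilutions, triplicate, 72 h at 37° C. Viability read consecutively by MTT (A570), Alamar Blue fluorescence and hexosaminidase activity, normalized to untreated control = 100%; EC50 from variable-slope sigmoidal fit.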

RQRRNXLKRAFAXLRDQ-OH [IDP-S03]
differences in survival with respect to the control [1]: 9.5
tumor reduction with respect to the control ([1]; at the end-time (when the control is sacrificed)): 50%
% Tumor Volume ([1]; day of treatment 1 (= 100)): 100%
Tumor Volume ([1]; day of treatment 1): 59.0
% Tumor Volume ([1]; day of treatment 5, relative to day 1): 193.2%
Tumor Volume ([1]; day of treatment 5): 114.1
% Tumor Volume ([1]; day of treatment 10, relative to day 1): 443.9%
Tumor Volume ([1]; day of treatment 10): 262.1
% Tumor Volume ([1]; day of treatment 15, relative to day 1): 661.6%
Tumor Volume ([1]; day of treatment 15): 390.7
% Tumor Volume ([1]; day of treatment 19, relative to day 1): 969.5%
Tumor Volume ([1]; day of treatment 19): 572.6
% Tumor Volume ([1]; day of treatment 26, relative to day 1): 2481.2%
Tumor Volume ([1]; day of treatment 26): 1465.2
Mean survival, Average ([1]; from treatment start until tumor diameter 2 cm): 40.5 days
EC50 [2]: 32 ± 5 µM
